Reference: ChEMBL document CHEMBL4196212, “Targeting Cytochrome P450 (CYP) 1B1 Enzyme with Four Series of A-Ring Substituted Estrane Derivatives: Design, Synthesis, Inhibitory Activity, and Selectivity” (J Med Chem, 2018)

How the values were obtained:
CYP1A1 [1] = target: T1, CYP1A1 (Homo sapiens, UniProt P04798); experiment: Inhibition of recombinant human CYP1A1 at 3 uM incubated for 25 mins using 7-ethyl-O-resorufin substrate in presence of NADPH regenerating system by fluorescence based ethoxyresorufin-O-deethylase assay; type: ADME; details: recombinant human CYP1A1, probe 7-ethyl-O-resorufin (7-ethoxyresorufin)
T1 sequence (P04798 whole entry): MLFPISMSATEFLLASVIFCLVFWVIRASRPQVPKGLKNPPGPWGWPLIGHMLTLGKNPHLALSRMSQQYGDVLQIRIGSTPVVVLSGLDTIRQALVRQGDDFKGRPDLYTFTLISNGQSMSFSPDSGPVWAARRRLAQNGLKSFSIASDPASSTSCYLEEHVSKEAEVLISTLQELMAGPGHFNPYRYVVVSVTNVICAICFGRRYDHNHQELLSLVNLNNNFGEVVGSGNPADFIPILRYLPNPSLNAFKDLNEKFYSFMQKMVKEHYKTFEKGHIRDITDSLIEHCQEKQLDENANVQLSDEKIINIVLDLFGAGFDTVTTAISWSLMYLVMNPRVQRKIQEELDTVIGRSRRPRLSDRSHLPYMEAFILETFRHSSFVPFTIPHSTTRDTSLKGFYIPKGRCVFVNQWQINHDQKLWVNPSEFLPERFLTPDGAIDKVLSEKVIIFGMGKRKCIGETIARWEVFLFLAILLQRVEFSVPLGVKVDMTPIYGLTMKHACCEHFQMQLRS

Cytochrome P450 1B1 = target: T2, Cytochrome P450 1B1 (Homo sapiens, UniProt Q16678); experiment: Inhibition of recombinant human CYP1B1 incubated for 45 mins using 7-ethyl-O-resorufin substrate in presence of NADPH regenerating system by fluorescence based ethoxyresorufin-O-deethylase assay
T2 sequence (Q16678 whole entry): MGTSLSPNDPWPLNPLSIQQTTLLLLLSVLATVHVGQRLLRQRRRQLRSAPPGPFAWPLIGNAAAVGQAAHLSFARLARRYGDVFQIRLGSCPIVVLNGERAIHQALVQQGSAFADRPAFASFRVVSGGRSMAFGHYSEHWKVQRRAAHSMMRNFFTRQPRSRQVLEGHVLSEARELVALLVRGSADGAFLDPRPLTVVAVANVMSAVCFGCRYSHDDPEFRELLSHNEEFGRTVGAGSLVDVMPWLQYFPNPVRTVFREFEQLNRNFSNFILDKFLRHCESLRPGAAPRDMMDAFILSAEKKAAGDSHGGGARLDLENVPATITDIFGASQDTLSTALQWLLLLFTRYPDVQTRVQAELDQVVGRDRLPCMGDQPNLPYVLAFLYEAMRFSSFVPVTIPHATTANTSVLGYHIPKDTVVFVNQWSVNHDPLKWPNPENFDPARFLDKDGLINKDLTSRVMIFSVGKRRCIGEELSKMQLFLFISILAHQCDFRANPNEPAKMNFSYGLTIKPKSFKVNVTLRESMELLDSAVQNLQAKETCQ

Cytochrome P450 1A1 = target: T3, Cytochrome P450 1A1 (Homo sapiens, UniProt P04798); experiment: Inhibition of recombinant human CYP1A1 incubated for 25 mins using 7-ethyl-O-resorufin substrate in presence of NADPH regenerating system by fluorescence based ethoxyresorufin-O-deethylase assay; type: ADME
T3 sequence (P04798 whole entry): T1 sequence (P04798 whole entry)

CYP1B1 [2] = target: T4, CYP1B1 (Homo sapiens, UniProt Q16678); experiment: Inhibition of recombinant human CYP1B1 at 0.3 uM incubated for 45 mins using 7-ethyl-O-resorufin substrate in presence of NADPH regenerating system by fluorescence based ethoxyresorufin-O-deethylase assay; details: recombinant human CYP1B1, probe 7-ethyl-O-resorufin (7-ethoxyresorufin)
T4 sequence (Q16678 whole entry): T2 sequence (Q16678 whole entry)

Homo sapiens = organism: Homo sapiens; experiment: Selectivity index, ratio of IC50 for inhibition of recombinant human CYP1A1 to IC50 for inhibition of recombinant human CYP1B1
CYP1A1 [3] = target: T1, CYP1A1; experiment: Inhibition of recombinant human CYP1A1 at 0.3 uM incubated for 25 mins using 7-ethyl-O-resorufin substrate in presence of NADPH regenerating system by fluorescence based ethoxyresorufin-O-deethylase assay; type: ADME; details: recombinant human CYP1A1, probe 7-ethyl-O-resorufin (7-ethoxyresorufin)
CYP1B1 [4] = target: T4, CYP1B1; experiment: Inhibition of recombinant human CYP1B1 at 3 uM incubated for 45 mins using 7-ethyl-O-resorufin substrate in presence of NADPH regenerating system by fluorescence based ethoxyresorufin-O-deethylase assay; details: recombinant human CYP1B1, probe 7-ethyl-O-resorufin (7-ethoxyresorufin)

| SMILES | inhibition at 25 min, 3 µM (CYP1A1 [1]) [%] | IC50 (Cytochrome P450 1B1) [µM] | IC50 (Cytochrome P450 1A1) [µM] | inhibition at 0.75 h, 0.3 µM (CYP1B1 [2]) [%] | Ratio IC50 (Homo sapiens) | inhibition at 25 min, 0.3 µM (CYP1A1 [3]) [%] | inhibition at 0.75 h, 3 µM (CYP1B1 [4]) [%] |
| --- | --- | --- | --- | --- | --- | --- | --- |
| C#C[C@]1(O)CC[C@H]2[C@@H]3CCc4cc(O)c(-c5ccc(OC)cc5)cc4[C@H]3CC[C@@]21C | 23 | 0.37 | 9.2 | 58 | 25 | 7 | 94 |
| C[C@]12CC[C@@H]3c4cc(-c5ccncc5)c(O)cc4CC[C@H]3[C@@H]1CC[C@@H]2O | 14 | 0.24 | 3.9 |  | 16 | 5 | 102 |
| C[C@]12CC[C@@H]3c4cc(-c5ccc(F)cc5)c(O)cc4CC[C@H]3[C@@H]1CC[C@@H]2O | 0 | 0.24 | 4.9 | 91 | 20 | 3 | 103 |
| O=c1cc(-c2ccccc2)oc2c1ccc1ccccc12 [ALPHA-NAPHTHOFLAVONE] | 75 |  | 2.7 |  |  | 30 | 101 |
